Laboratory results as given in US12555809B2, “Additives for fluorenone/fluorenol based aqueous redox flow batteries” (Battelle Memorial Institute, priority 2021, dated 2026).

How the values were obtained:
[1] = cited from earlier work; for H—B pKa: conjugate acid of B^-
[2] = Solubility measurement (saturated solution concentration by NMR); format: physicochemical; conditions: with less than 0.1 M β-CD added
Method: A general procedure was applied following below steps. First a supernatant was prepared by mixing solute and solvent with heating, stirring, and centrifugation. The resulting cooled mixture was filtered through 0.2 μm PP membrane filter. The saturated solution concentration was determined by NMR. NMR sample was prepared with mixing 100 μL of saturated solution, 50 μL of internal standard solution (1 M sodium methane sulfonate) and 950 μL D2O.

[3] = Rotating disk electrode (RDE) study; format: physicochemical; conditions: 27S4CFL (5 mM) in 0.1 M β-CD/1 M NaOH
Method: Rotating disk electrode (RDE) measurements (Feng et al., Science 2021, 372:836) were performed using a three-electrode configuration consisting of a glassy carbon working electrode (3 mm diameter), a carbon rod counter electrode and an Ag/AgCl reference electrode. The electrolytes of 5 mM redox-active materials in 1.0 M NaOH were used. Data were collected using a CHI potentiostat at scan rates of 5 mV/s in the potential range of −1.55V˜−0.5V vs Ag/AgCl. The rotation rates were at 300, 600, 900, 1200, 1500, 1800, 2100 and 2400 rpm. […] The Koutecky-Levich plots at different overpotentials were extrapolated to get the kinetic current ik according to the Koutecky-Levich equation:
[formula] The exchange current i0 can be obtained by fitting ik to the Tafel plot at the overpotential of zero, from which the reaction rate constant (k0) was determined according to Butler-Volmer equation: i0=nFACk0 Flow Battery Tests

[4] = PFG NMR diffusion coefficients (1H, 23Na); format: physicochemical; conditions: for D(Na^+): 23Na PFG NMR at 25° C.
Method: Nuclear magnetic resonance spectroscopy: NMR spectra were either collected on a 500 MHz Oxford NMR spectrometer at 25° C. (the system consists of an Oxford AS500 magnet connected to an Agilent Technologies console), or collected on a 400 MHz NMR spectrometer (Bruker 400 MHz Avance III NMR with NanoBay console, equipped with a SampleCase™ autosampler using IconNMR automation. Probe: BBFO 5 mm SmartProbe sensor). Chemical shifts were reported in ppm with the solvent resonance as the internal standard (DMSO, δ=2.50; D2O, δ=4.70; CDCl3, δ=7.26).

[5] = Small-angle X-ray scattering (SAXS) cluster size; format: physicochemical; conditions: for Diameter: SAXS
From the text: Small-angle X-ray scattering: Synchrotron SAXS technique is a powerful technique to measure the size of dissolved molecules, clusters, and suspended particles. SAXS resolves the particle size and shape over a wide range of sizes from several Å to hundreds of nm. Considering the small sizes and low electron contrast of β-CD, FL and FLOH relative to solution, there was a focus on collecting data from a scattering vector, q, of 0.05 to 2 Å-1. Small-angle X-ray scattering (SAXS) data was acquired at beamline 12-ID-B of the APS. A constant incident photon energy of 13.3 keV (λ=0.9322 Å) was used to measure samples in transmission through a 2-mm ID silica capillary (Charles Supper SiO2 capillaries, 10 μm wall thickness). Sample-to-detector distance was calibrated using a silver behenate standard. 2D images were recorded using a Pilatus 2M detector (Dectris; pixel size 172×172 μm^2) for five frames at a 1 s exposure time each. Artifacts from static noise were subtracted using detector dark images, which were acquired every ten frames. Solution blanks were acquired identical to the suspension samples and subtracted using a scaling factor of 1. The RAW program from the BioXTAS package was used, as well as SasView and Irena, to integrate the data, average and merge scans, perform background subtractions, and to calculate pair distance distribution functions (PDDF).

[6] = H-cell oxidation rate measurement (chronocoulometry)
Method: The measurement was conducted with H-cell equipped with Hg/HgO as reference electrode and Glassy carbon electrode as working electrode (0.0707 cm^2). Carbon rod was used as counter electrode. Stir bar was equipped to facilitate mass transfer, so it is not considered as a limiting factor in the measurement of oxidation process. Chronocoulometry method was applied at specified potential for 120 s with IR compensation (CI mode on Gamry) and 1.5 s per data point. Nafion® 212 (soaked in 1 M NaOH at room temperature) was used as separator. Each data point was repeated three times. The electrolyte solution was prepared using the battery charging to specified SOC. The battery was constructed with 8 mL of 0.3 M 274FL/1 eqNaOH/1 M NaOH and 30 mL of 0.3 M potassium ferrocyanide/0.3 M potassium ferricyanide/1 M NaOH. After charged to specified SOC, the anolyte solution was diluted with 1 M NaOH to result a 15 mM active material solution. The catholyte was diluted with 1 M NaOH to result an 8.75 mM potassium ferrocyanide/28.75 mM potassium ferricyanide solution. The solution used for H-cell measurement in each compartment was 5 mL, with addition of specified amount of additive. To prepare deuterated fluorenol, the cell was constructed using NaOD/D2O for both anolyte and catholyte.
Due to well stirred solution and only 120 s measurement with small electrode area, mass transfer and SOC change influence can be considered as neglectable. Thus, a linear relationship was obtained (A condition where neglectable oxidizable material concentration change during testing period). The slope represents an oxidation rate (C/s, average current, unit A) for the solution oxidizable species during that testing period.
A heterogeneous reaction oxidation rate constant (cm/s) at a specified overpotential was calculated based on a pseudo first order reaction model (Hammerich et al., Organic electrochemistry:revised and expanded 2015, CRC Press; Markle et al., Science Advances 2018, 4: eaat5776):
[formula] here “i” unit is A(C/s), A is 0.0707 cm^2. […]

[7] = pKa of additive / proton acceptor (H—B) and deprotonation of β-CD in alkaline solution; format: physicochemical; conditions: 0.1 M β-CD added to 1 M NaOH
From the text: β-(Cyclodextrin)CD was selected as model compound. Not only benefiting from the cavity containing poly-hydroxyl structure, but it also has a pKa at around 13.5, which is similar to the pKa of functionalized fluorenol, rendering a potentially strong H-bonding structure. Based on past studies (Gaidamauskas et al., Carbohydrate Research 2009, 344:250-254) and measurement of β-CD behavior in alkaline solution, this supermolecule experiences two-fold of deprotonation in 1 M NaOH. […] From a battery operation point, β-CD is notable for its redox-inert character and large molecular size, which leaves no concern of crossover and loss of catalyst. From a practical application point, the low-cost and non-toxic merit warrants feasible implementation.

[8] = Battery current response test at controlled voltage; conditions: fully charged electrolyte, 0.9V controlled voltage discharge
Method: The battery of FIG. 13 was constructed similar to above described procedure, except that two consecutive cell stacks were employed (electrolyte flow through the two cells consecutively), one for charging and discharging, one for OCV monitoring. The battery in FIG. 18 was constructed using one cell stack, with additional pump and tubing system circulating ˜3 mL electrolyte through EPR detecting tube at 100 rpm rate. Anolyte was comprised of 12 mL 0.1 M 274FL/1 M NaOH with specified additive at 0.086 M. Catholyte was comprised of 500 mL 0.1 M ferrocyanide/0.05 M ferricyanide/1 M NaOH. Electrolyte was charged until desired SOC reached. Then the discharge current response was measured at controlled voltage of 0.9V. Each measurement was repeated 5 cycles (FIG. 13) and experiments were repeated two times in FIG. 18.

[9] = EPR of comproportionation mixture (FLOH + FL); conditions: 0.001 M FLOH and 0.001 M FL 1:1, 0.001 M β-CD, 20 min after mixing
Method: Electron paramagnetic resonance spectroscopy: EPR measurements were performed on a Bruker ELEXSYS E580 spectrometer at 298 K. The electrolyte solution sample was pulled into a glass capillary (VitroTubes™, ID 0.8 mm and OD 1 mm) using a Hamilton syringe connected through nanotight fittings from Valco Instruments Co. Inc. The capillary was sealed using Critoseal™ Leica Microsystems capillary tube sealant on both ends and was further placed inside a 4 mm EPR tube with the open end sealed inside a glove box filled with nitrogen. All samples were prepared inside the glove box immediately before EPR experiments to minimize the influence of air and moisture. The typical settings for the spectra were microwave frequency=9.324 GHz, sweep time=41.94 s, time constant=5.12 ms, power=0.02 mW, field modulation amplitude=0.05 G, and sweep width=24 G for dilute solutions in order to capture the detailed hyperfine structures but the sweep width was increased to 50 G for relatively concentrated solutions to incorporate their broader line widths. Absolute spin concentrations of the samples were determined by calibration curves of the spin standard TEMPO (2,2,6,6-tetramethyl-1-piperidinyloxyl) with concentrations varying from 0.01 mM to 100 mM, and another spin standard 4-Hydroxy-TEMPO with concentrations varying from 0.1 M to 1.0 M.

[10] = ratio of diffusion coefficients

Row | Structure (SMILES) | D(FLOH or FL) ([4]; 1H PFG NMR at 25° C.) | D(H2O) ([4]; 1H PFG NMR at 25° C.) | D(Na^+) [4] | D(FLOH or FL)/D(H2O) [4, 10] | D(Na^+)/D(H2O) [4, 10] | Diameter [5] | H—B pKa [1] | other results
1 | Oc1ccc(O)cc1 | – | – | – | – | – | – | 9.7 | –
2 | O=C(O)c1cccc2c1-c1ccc(S(=O)(=O)[O-])cc1C2=O.[K+] [4C7SFL, 4-carboxylate-7-sulfonate fluorenone/fluorenol] | – | – | – | – | – | – | – | solubility ([2]; aqueous with cosolvent or surfactant or cyclodextrin, thermodynamic from solid, read-out: measured solubility): ~1900 mM; solubility increase compared with solubility without β-CD [2]: ~30%; volumetric capacity corresponding to solubility [2]: 101.8 Ah/L
3 | OCC(F)(F)F [CF3CH2O] | – | – | – | – | – | – | 11.4-12.4 | –
4 | OC[C@H]1O[C@@H]2O[C@H]3[C@H](O)[C@@H](O)[C@@H](O[C@H]4[C@H](O)[C@@H](O)[C@@H](O[C@H]5[C@H](O)[C@@H](O)[C@@H](O[C@H]6[C@H](O)[C@@H](O)[C@@H](O[C@H]7[C@H](O)[C@@H](O)[C@@H](O[C@H]8[C@H](O)[C@@H](O)[C@@H](O[C@H]1[C@H](O)[C@H]2O)O[C@@H]8CO)O[C@@H]7CO)O[C@@H]6CO)O[C@@H]5CO)O[C@@H]4CO)O[C@@H]3CO [β-CD, β-cyclodextrin] | – | 13.1 ×10^−10 m^2/s | 8.12 ×10^−10 m^2/s | – | 0.62 | 11.76 ± 3.94 Å Å | – | increment of fluorenol oxidation ([6]; H-cell, −0.65V vs Hg/HgO): 1.6 times; KIE value ([6]; applied potential of −0.65V vs Hg/HgO): 2.42; deuterated fluorenol oxidation rate enhancement ([6]; deuterated fluorenol): 1.4 times; hydroxide consumption corresponding to pH decrease [7]: 0.184 M; peak current density relative to blank [8]: 1.6 times; pKa [1]: around 13.5; D(β-CD) ([4]; 1H PFG NMR at 25° C.): 1.57 ×10^−10 m^2/s; D(β-CD)/D(H2O) [4, 10]: 0.12; height of the cup ([5]; SAXS RDFs): ~4 Å; width of the cup ([5]; SAXS RDFs): ~12 Å; reduction of radical concentration estimated from EPR peak intensity [9]: 60%

More lines, main results first:

Row | D(FLOH or FL) ([4]; 1H PFG NMR at 25° C.) | D(H2O) ([4]; 1H PFG NMR at 25° C.) | D(Na^+) [4] | D(FLOH or FL)/D(H2O) [4, 10] | D(Na^+)/D(H2O) [4, 10] | Diameter [5] | Structure (SMILES) | H—B pKa [1] | other results
5 | 1.92 ×10^−10 m^2/s | 12.1 ×10^−10 m^2/s | 7.60 ×10^−10 m^2/s | 0.16 | 0.63 | 16.48 ± 0.21 Å Å | O=C(O)c1cc(S(=O)(=O)O)cc2c1-c1ccc(S(=O)(=O)O)cc1C2=O [27S4CFL, 2,7-sulfonate-4-carboxylate fluorenone] | – | calculated diffusion coefficient [3]: 7.56×10^−6 cm^2/s; calculated kinetic reduction rate constant for the first electron [3]: 0.00351 cm/s
6 | 2.45 ×10^−10 m^2/s | 13.6 ×10^−10 m^2/s | 6.72 ×10^−10 m^2/s | 0.18 | 0.49 | 12.32 ± 1.84 Å Å | O=C(O)c1cc(S(=O)(=O)O)cc2c1-c1ccc(S(=O)(=O)O)cc1C2O (centres unmarked) [FLOH, 2,7-sulfonate-4-carboxylate fluorenol] | – | D(FLOH - H6) ([4]; 1H PFG NMR at 25° C.): 2.43 ×10^−10 m^2/s
